Legend:
Type in all cases: functional
Set-up in all cases: scale not given: the % may be the effect or the level left
Rattus norvegicus [1] = experiment: Antihyperglycemic activity in albino Rattus norvegicus Sprague-Dawley (rat) streptozotocin-induced diabetic model assessed as reduction of AUC of blood glucose level at 50 mg/kg, po after 24 hr
Rattus norvegicus [2] = experiment: Antihyperglycemic activity in albino Rattus norvegicus Sprague-Dawley (rat) streptozotocin-induced diabetic model assessed as reduction of AUC of blood glucose level at 50 mg/kg, po after 5 hr
Rattus norvegicus [3] = experiment: Antihyperglycemic activity in albino Rattus norvegicus Sprague-Dawley (rat) streptozotocin-induced diabetic model assessed as reduction of AUC of blood glucose level at 100 mg/kg, po after 5 hr
Rattus norvegicus [4] = experiment: Antihyperglycemic activity in albino Rattus norvegicus Sprague-Dawley (rat) streptozotocin-induced diabetic model assessed as reduction of AUC of blood glucose level at 100 mg/kg, po after 24 hr

| SMILES | Activity (Rattus norvegicus [1]) [%] | Activity (Rattus norvegicus [2]) [%] | Activity (Rattus norvegicus [3]) [%] | Activity (Rattus norvegicus [4]) [%] |
| --- | --- | --- | --- | --- |
| C[N+](C)(C)[C@@H](Cc1c[nH]c2ccccc12)C(=O)[O-] [Hypaphorine] | 20.4 | 27.8 |  |  |
| CN(C)C(=N)NC(=N)N [METFORMIN] |  |  | 26 | 24.9 |
